Values after ≈ are worked out from the molar mass of the structure shown. Like-named read-outs stand apart in the source and are kept apart here.
Assays:
S. aureus 340 = experiment: MIC, broth microdilution; assay type: cell-based, Staphylococcus aureus; settings: for MIC: Staphylococcus aureus, 340, 24 h
Protocol: (§1) Antimicrobial activity of the compounds was studied by determination of minimal inhibitory concentrations (MIC) according to the NCCLS guidelines M7-A2 using the microbroth dilution methods. The bacteria strains were grown on trypticase soy agar (Becton Dickinson) at 37 °C for 24 h. Inocula were prepared in TCE (tryptone 0.1%, […], wt/vol) by ajusting the turbidity at 623 nm to obtain 1–3 10^5 CFU/mL.
(§2) Antimicrobial activities of the compounds were determined by using a broth microdilution method performed in sterile 96-well microplates. All compounds were solubilized in water at a concentration of 10 mM and were transferred to each microplate well in order to obtain a two-fold serial dilution in 100 µL of broth and 100 µL of inoculum containing 2–6 10^5 CFU of each bacterium were added to each well. Some wells were reserved for positive controls and inoculum viability.

S. aureus ATCC 25923 = experiment: MIC, broth microdilution; assay type: cell-based, Staphylococcus aureus; settings: Staphylococcus aureus, ATCC25923, 24 h, ATCC strain
Protocol: as §1, §2

S. intermedius 1051997 = experiment: MIC, broth microdilution; assay type: cell-based, Staphylococcus intermedius; settings: Staphylococcus intermedius, 1051997, 24 h, 24 h
Protocol: as §1, §2

E. faecalis ATCC29212 = experiment: MIC, broth microdilution; assay type: cell-based, Enterococccus faecalis; settings: Enterococcus faecalis, ATCC29212, 24 h, ATCC strain, read-out: MIC E. faecalis 29212
Protocol: as §1, §2

E. coli 1956 = experiment: MIC, broth microdilution; assay type: cell-based, Escherichia coli; settings: Escherichia coli, 1956, 24 h
Protocol: as §1, §2

E. coli ATCC 25922 = experiment: MIC, broth microdilution; assay type: cell-based, Escherichia coli; settings: Escherichia coli, ATCC25922, 24 h, ATCC strain
Protocol: as §1, §2

P. aeruginosa 1051575 = experiment: MIC, broth microdilution; assay type: cell-based, Pseudomonas aeruginosa; settings: Pseudomonas aeruginosa, 1051575, 24 h, 24 h
Protocol: as §1, §2

P. aeruginosa ATCC 27853 = experiment: MIC, broth microdilution; assay type: cell-based, Pseudomonas aeruginosa; settings: Pseudomonas aeruginosa, ATCC27853, 24 h, ATCC strain
Protocol: as §1, §2

[1] = tested on: Chinese hamster Ovary cells (CHO-K1); experiment: Cytotoxicity assay (WST-1 / Neutral Red); assay type: cell-based; settings: 24-h incubation; for IC50: Cricetulus griseus, 24 h
Protocol: The cytotoxic activities of compounds were assessed on Chinese hamster Ovary cells (CHO-K1) provided from ATCC-LGC Standards Sarl (Molsheim, France). Cells were maintained in Mc Coy’s 5A (CHO) medium supplemented with 10% bovine calf serum, 2 mM glutamine, and 100 U mL^−1/10 µg mL^−1 penicillin/streptomycin mixtures. For the cytotoxicity experiments, they were seeded in 96-well plates and incubated at 37 °C in humidified atmosphere containing 5% CO2 overnight, then concentrations of compounds were incorporated in triplicate cultures. After a 24-h incubation period at 37 °C, cells were submitted to three successive washes in phosphate buffer saline (PBS) and cell viability was evaluated by two different vital dyes: • i. A first set of cell cultures was incubated in PBS containing 10% WST-1 for 30 min at 37 °C, 5% CO2. Cell viability was evaluated by the assessment of WST-1 absorbance at 450 nm in a microplate spectrophotometer. • ii. A second set of cell cultures was placed into Neutral Red medium (50 μg mL^−1 Neutral Red in complete medium) and incubated for 3 h at 37 °C, 5% CO2. Then the Neutral Red medium was removed and the distaining solution (50% ethanol, 1% acetic acid, 49% distilled water; 50 µL per well) was added into the wells. The plates were shaken for 15–20 min at room temperature in the dark. Cell viability was evaluated by the assessment of absorbance at 540 nm in a microplate spectrophotometer.
Results were expressed as percentages of cell viability about the control (culture medium-only), which corresponded to 100% cell viability. Dose-response curves were calculated by non-linear regression analysis with TableCurve 2D software (V 5.0.1) (Systat Software Inc., San Jose, CA, USA). The Inhibitory Concentration 50% (IC50) was defined as the concentration of compounds that induced a 50% decrease of viable cells.

[2] = tested on: Gram-positive and Gram-negative human and veterinary reference strains; experiment: MIC against the panel of Gram-positive and Gram-negative reference strains; assay type: cell-based; settings: for MIC: over several or all of the tested pathogens; for Therapeutic Ratio (TR): IC50 (CHO)/MIC, over several of the tested pathogens
Excerpt: Typically, cytotoxicity was expressed as the half maximal inhibitory concentration (IC50), defined as the concentration of a compound that decreases cell viability by 50% relative to untreated cells. This parameter provides a quantitative measure of a compound’s toxic potential toward mammalian cells. To facilitate data interpretation, we defined the Therapeutic Ratio (TR) as the ratio of IC50 (µg/mL) to MIC (µg/mL). This dimensionless parameter provides a straightforward measure of antibacterial selectivity, allowing direct comparison of cytotoxicity and antibacterial potency. A high TR value indicates compounds with strong antibacterial activity at concentrations far below their cytotoxic threshold, whereas a TR close to unity reflects poor selectivity and limited therapeutic potential. […] Within the Claramine A series, variations in IC50 strongly impacted TR values (Figure 5).
as §1, §2

[3] = tested on: S. aureus 340 and P. aeruginosa 1051575; experiment: MIC against S. aureus and P. aeruginosa strains (Figure 6); assay type: cell-based; settings: range over both strains, C-24 methyl ester series
Protocol: as §1, §2

[4] = Homo sapiens, 24 h, read-out: MIC

| Structure (SMILES) | MIC S. aureus 340 (S. aureus 340; 24 h) [µg/mL] | MIC (S. aureus 340) [µg/mL] | MIC (S. aureus ATCC 25923) [µg/mL] | MIC (S. intermedius 1051997) [µg/mL] | MIC (E. faecalis ATCC29212) [µg/mL] | MIC (E. coli 1956) [µg/mL] | MIC (E. coli ATCC 25922) [µg/mL] | MIC (P. aeruginosa 1051575) [µg/mL] | MIC (P. aeruginosa ATCC 27853) [µg/mL] | IC50 CHO [1] [µg/mL] | IC50 [1] [µg/mL] | MIC [2, 4] [µg/mL] | Therapeutic Ratio (TR) [2] | MIC [2] | MIC [3] [µg/mL] | MIC ([2]; Homo sapiens, 24 h) [µg/mL] |
| --- | --- | --- | --- | --- | --- | --- | --- | --- | --- | --- | --- | --- | --- | --- | --- | --- |
| CC(C)OC(=O)CCC(C)C1CCC2C3CCC4CC(NCCCNCCCCNCCCN)CCC4(C)C3CC(O)C12C (stereo not shown) [Claramine A01, 3-Spermino Isopropyl Deoxycholate] | 2 (≈ 3.23 µM) | < 4 | 2 (≈ 3.23 µM) | 8 (≈ 12.9 µM) | 30 (≈ 48.5 µM) | 15 (≈ 24.2 µM) | 4 (≈ 6.46 µM) | 15 (≈ 24.2 µM) | 8 (≈ 12.9 µM) | 43 (≈ 69.5 µM) | > 35 | < 15 | > 5 | increased membrane permeabilization and concomitant disruption of proton homeostasis | – | – |
| CC(C)OC(=O)CCC(C)C1CCC2C3CCC4CC(NCCCNCCCNCCCN)CCC4(C)C3CC(O)C12C (stereo not shown) [Claramine A02] | – | 2 (≈ 3.31 µM) | 4 (≈ 6.61 µM) | 2 (≈ 3.31 µM) | 8 (≈ 13.2 µM) | 15 (≈ 24.8 µM) | 8 (≈ 13.2 µM) | 8 (≈ 13.2 µM) | 8 (≈ 13.2 µM) | – | 51 (≈ 84.3 µM) | < 15 | > 5 | – | – | – |
| CC(C)OC(=O)CCC(C)C1CCC2C3CCC4CC(NCCCNCCCCN)CCC4(C)C3CC(O)C12C (stereo not shown) [Claramine A03] | – | 2 (≈ 3.56 µM) | 7 (≈ 12.5 µM) | 4 (≈ 7.12 µM) | 14 (≈ 24.9 µM) | 14 (≈ 24.9 µM) | 14 (≈ 24.9 µM) | 14 (≈ 24.9 µM) | 14 (≈ 24.9 µM) | – | 73 (≈ 130 µM) | < 15 | > 5 | – | – | – |
| COC(=O)CCC(C)C1CCC2C3CCC4CC(NCCCNCCCNCCCN)CCC4(C)C3CC(O)C12C (stereo not shown) [Claramine A06] | – | – | – | – | – | – | – | – | – | – | – | – | – | – | 2 to 4 (≈ 3.47 to 6.93 µM) | – |
| COC(=O)CCC(C)C1CCC2C3CCC4CC(NCCCNCCCN)CCC4(C)C3CC(O)C12C (stereo not shown) [Claramine A08] | – | 3 (≈ 5.77 µM) | 2 (≈ 3.85 µM) | 0.4 (≈ 0.77 µM) | 3 (≈ 5.77 µM) | 13 (≈ 25 µM) | 3 (≈ 5.77 µM) | 3 (≈ 5.77 µM) | 3 (≈ 5.77 µM) | – | 21 (≈ 40.4 µM) | < 15 | > 5 | – | – | – |
| COC(=O)CCC(C)C1CCC2C3CCC4CC(NCCNCCNCCNCCNCN)CCC4(C)C3CC(O)C12C (stereo not shown) [Claramine A15] | – | 6 (≈ 9.89 µM) | 4 (≈ 6.59 µM) | 1 (≈ 1.65 µM) | 16 (≈ 26.4 µM) | 14 (≈ 23.1 µM) | 8 (≈ 13.2 µM) | 8 (≈ 13.2 µM) | 8 (≈ 13.2 µM) | – | 93 (≈ 153 µM) | < 15 | > 5 | – | – | – |
| COC(=O)CCC(C)C1CCC2C3CCC4CC(NCCCN5CCN(CCCN)CC5)CCC4(C)C3CC(O)C12C (stereo not shown) [Claramine A18] | – | 7 (≈ 11.9 µM) | 15 (≈ 25.5 µM) | 4 (≈ 6.79 µM) | 30 (≈ 50.9 µM) | – | 7 (≈ 11.9 µM) | 15 (≈ 25.5 µM) | 15 (≈ 25.5 µM) | – | 135 (≈ 229 µM) | < 15 | > 5 | – | – | – |
| COC(=O)CCC(C)C1CCC2C3C(O)CC4CC(NCCCCCCN)CCC4(C)C3CC(O)C12C (stereo not shown) [Claramine B06] | – | 3 (≈ 5.76 µM) | 3 (≈ 5.76 µM) | 2 (≈ 3.84 µM) | 7 (≈ 13.4 µM) | – | 7 (≈ 13.4 µM) | 13 (≈ 25 µM) | 13 (≈ 25 µM) | 60 (≈ 115 µM) | > 60 | – | – | – | – | 0.7 to 30 (≈ 1.34 to 57.6 µM) |

From publication PMC12693182, “Synthesis and QSAR Studies of Claramine Derivatives, a New Class of Broad-Spectrum Antimicrobial Agents” (Molecules, 2025)
